Legend:
Type in all cases: cell-based, human
[1] = system: miR-10a; assay: Northern blot of miR-10a expression in PaTu-T cells (densitometry); details: for miR-10a expression: result in words
Description: (§1) Northern Blot analysis was performed essentially according to Kloosterman et al. ^16 using a miR-10 LNA probe ([…]) (Exiqon, Denmark). We had previously described protocols for RT-PCR^17 and RT-qPCR^18 . Primers for the RT-PCR were: HOXB1: sc-38686 and HOXB3: sc-38690-PR and RARα: sc-29465-PR all from Santa Cruz Biotechnology. For quantitative RT-PCR we used 100 ng of total RNA and the Roche Master SYBR Green kit. Single-band amplification was verified by melting curve dissociation protocols. A standard curve for β-actin using 1, 5, 10, 100, and 500 ng of total RNA was used for normalization. RT-qPCR primers for HOXB1 were: forward 5'-[…]-3' and reverse 5'-[…]-3' and for HOXB3: forward 5'-[…]-3' and reverse 5'-[…]-3'.
(§2) PaTu-T cells were incubated as indicated, with DMSO (Co), 200 nM Ro-41-5253 (RARα inh), control-Morpholino, miR-10a Morpholino, miR-196 siRNA (Co), or RARα siRNA and PaTu-S cells were co-incubated with 1 µM retinoic acid (RA) and control siRNA, RARα siRNA or Ro-415253 and miR-10a expression was evaluated by Northern blot analysis (A). […] RT-PCR control of GAPDH was used as a loading control (not shown). Dose response curves for RA and the RARα antagonist and the RT-PCR control for RARα siRNA treatment are shown in Supplemental Fig. 1. The effect of Ro-415253 on cell migration was analysed in an in vitro migration assay in PaTu-T cells. […] An actin re-blot confirmed equal loading.
PaTu-T cells were incubated for 24h with indicated concentrations of Ro-415253 and miR-10a expression was evaluated by northern blot analysis (upper panel). GAPDH loading control is shown in the lower panel. […] Patu-S cells were incubated tor 24h with indicated concentrations of ATRA and miR-10a expression was evaluated by northern blot analysis (upper panel). GAPDH loading control is shown in the lower panel. (C) Specific "knockdown" of RARα in PaTu-Tcells by RARα siRNA. RT-PCR from total RNA of RARα or control siRNA (Co) treated PaTu-T cells (24h) confirms specific knockdown of RARa. RT-PCR of GAPDH control is shown in the lower panel.

[2] = system: HOXB3; assay: RT-PCR / RT-qPCR of HOXB3 expression; details: quantitative PCR
Description: as §1
(§3) PaTu-S and PaTu-T cells were treated (24h) as indicated with specific siRNAs against HOXB1 (B1) and HOXB3 (B3) (Co: DMSO control) in the presence or absence of Ro-41-5253. Migration of these cells was analysed after transplantation into zebrafish embryos (see Table 1) and downregulation of HOXB1 and HOXB3 expression in these cells was confirmed by PCR analysis (A).
(§4) A similar regulation is seen following incubation with miR-10a Morpholinos or with miR-10a siRNAs (right side; Control: control Morpholino or control-siRNA) (B). Results are normalized to β-actin expression and similar results were obtained in three independent experiments. […]

[3] = system: HOXB1; assay: RT-PCR / RT-qPCR of HOXB1 expression; details: quantitative PCR
Description: as §1, §3, §4

[4] = system: PaTu-T cells; assay: In vitro migration assay (scratch assay); details: compared to DMSO control
Description: We used the selective RARα antagonist Ro-41-5253; to analyze its anti-migratory activity in an in vitro migration assay ("scratch assay") and in the zebrafish xenotransplantation model, respectively. […] Similar results were obtained when PaTu-T cells were treated with RAR -specific siRNAs (Supplemental Table 1 and Supplemental Fig. 1).
as §2

[5] = system: miR-10a; assay: cells
Description: Northern Blot analysis was performed essentially according to Kloosterman et al. ^16 using a miR-10 LNA probe ([…]) (Exiqon, Denmark). We had previously described protocols for RT-PCR^17 and RT-qPCR^18 . Primers for the RT-PCR were: HOXB1: sc-38686 and HOXB3: sc-38690-PR and RARα: sc-29465-PR all from Santa Cruz Biotechnology. For quantitative RT-PCR we used 100 ng of total RNA and the Roche Master SYBR Green kit. Single-band amplification was verified by melting curve dissociation protocols. A standard curve for β-actin using 1, 5, 10, 100, and 500 ng of total RNA was used for normalization. […]
PaTu-T cells were incubated as indicated, with DMSO (Co), 200 nM Ro-41-5253 (RARα inh), control-Morpholino, miR-10a Morpholino, miR-196 siRNA (Co), or RARα siRNA and PaTu-S cells were co-incubated with 1 µM retinoic acid (RA) and control siRNA, RARα siRNA or Ro-415253 and miR-10a expression was evaluated by Northern blot analysis (A). […] The effect of Ro-415253 on cell migration was analysed in an in vitro migration assay in PaTu-T cells. […]
PaTu-T cells were incubated for 24h with indicated concentrations of Ro-415253 and miR-10a expression was evaluated by northern blot analysis (upper panel). […] Patu-S cells were incubated tor 24h with indicated concentrations of ATRA and miR-10a expression was evaluated by northern blot analysis (upper panel). […]

SMILES	reduction of miR-10a expression ([1]; densitometric analysis, Ro-41-5253 at 200 nM) [fold]	miR-10a expression [1]	miR-10a expression ([1]; listed as Ro-415253)	HOXB3 expression ([2]; PaTu-T cells)	HOXB1 expression ([3]; PaTu-T cells)	cell migration [4]	cell migration ([4]; listed as RARα antagonist)	upregulation of miR-10a expression by retinoic acid ([5]; PaTu-S cells co-incubated with 1 µM retinoic acid)	HOXB3 expression ([2]; PaTu-S cells)	HOXB1 expression ([3]; PaTu-S cells)	fold induction at 1 µM ([5]; Homo sapiens, 24 h, read-out: miR-10a expression upregulated)
CCCCCCCOc1cc2c(cc1/C(C)=C/c1ccc(C(=O)O)cc1)C(C)(C)CCS2(=O)=O [Ro-41-5253, Benzoic acid, 4-(2-(7-(heptyloxy)-3,4-dihydro-4,4-dimethyl-2H-1-benzothiopyran-6-yl)-1-propenyl)-, S,S-dioxide, (E)]	9.4	significant decrease	Dose dependent repression	increased	increased	significant inhibition	significantly decreased	completely blocked			
CC1=C(/C=C/C(C)=C/C=C/C(C)=C/C(=O)O)C(C)(C)CCC1 [RA, all trans retinoic acid]									decreased	decreased	7.2
